Test results from PMC4987650, “Structural Investigation of Park’s Nucleotide on Bacterial Translocase MraY: Discovery of Unexpected MraY Inhibitors” (Scientific Reports, 2016).

Columns and labels:
MraYBS [1] = biological target: T1, MraYBS (Bacillus subtilis, UniProt Q03521); test: MraY fluorescence enhancement assay (kinetics, inhibition); format: biochemical; details: WT MraYBS, 6 as the substrate
T1 construct: MBP; made in house
T1 sequence (Q03521 1-324): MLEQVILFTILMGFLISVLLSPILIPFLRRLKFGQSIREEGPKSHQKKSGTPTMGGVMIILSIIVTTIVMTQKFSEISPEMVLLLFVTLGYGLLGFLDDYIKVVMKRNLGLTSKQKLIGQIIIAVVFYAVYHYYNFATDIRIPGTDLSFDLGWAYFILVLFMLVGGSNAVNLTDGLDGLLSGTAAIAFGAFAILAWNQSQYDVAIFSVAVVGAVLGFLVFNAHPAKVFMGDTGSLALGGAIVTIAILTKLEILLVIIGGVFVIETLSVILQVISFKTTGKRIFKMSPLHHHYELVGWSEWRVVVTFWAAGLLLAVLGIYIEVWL
Description: Determine kinetic parameters by MraY fluorescence enhancement assay. The fluorescence enhancement assay was performed in 384-well plate as described by Bugg et al. with slight modifications.5 The reaction mixture containing MraYBS (10 μg/mL), C55P (200 μM) in 30 μL reaction buffer (30 mM Tris, 10 mM MgCl2, 10 mM NaCl, 0.1 mM Tween-20, 2.5% DMSO, pH 8.0) were pre-incubated at 37 °C for 15 min. The reactions were initiated by the addition of various concentrations of NBD-Park’s nucleotide 6 (0 to 160 μM). For inhibition study, a various concentrations of inhibitors were added before the addition of substrate 6. The continuous fluorescence increase over 60 min was monitored with λex 466 nm/λem 535 nm by fluorescence microplate reader (SpectraMax M5, Molecular Devices, LLC) at 37 °C. Linear regressions of increased fluorescent units (FLU) versus time (min) were used to calculate the initial velocities for each reaction. The kinetic parameters values (Ki, KM, and Vmax) were obtained by nonlinear regression analysis using the […] equation with the GraphPad Prism program (GraphPad Software, San

MraYBS K102A mutant = biological target: T2, MraYBS K102A mutant (Bacillus subtilis, UniProt Q03521, K102A); test: HPLC-based MraY functional assay, mutant MraY; format: biochemical; details: consumption of 6 in one-hour reaction
T2 construct: MBP; made in house
T2 sequence (Q03521 whole entry K102A): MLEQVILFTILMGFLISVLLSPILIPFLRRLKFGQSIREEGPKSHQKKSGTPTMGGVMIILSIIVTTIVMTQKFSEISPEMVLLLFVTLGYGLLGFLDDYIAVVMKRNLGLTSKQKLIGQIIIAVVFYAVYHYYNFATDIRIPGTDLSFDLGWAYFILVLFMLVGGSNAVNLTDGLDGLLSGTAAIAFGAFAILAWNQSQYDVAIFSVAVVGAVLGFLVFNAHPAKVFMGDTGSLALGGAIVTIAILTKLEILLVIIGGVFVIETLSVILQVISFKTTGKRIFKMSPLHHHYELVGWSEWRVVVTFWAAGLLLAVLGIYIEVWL
Description: The purified MraY from Bacillus subtilis was prepared as described in our previous reports. For 5 and 7–10, the reaction mixture containing MraYBS (10 μg/mL), C55P (200 μM) in 40 μL reaction buffer (30 mM Tris, 10 mM MgCl2, 10 mM NaCl, 0.1 mM Tween-20, 2.5% DMSO, pH 8.0) were pre-incubated at 37 °C for 15 min. The reactions were initiated by the addition of Park’s nucleotide analogues (10 μM) and incubated at 37 °C for 1 h. The reaction mixtures were added by uridine (0.01 mg/mL) as the internal standard and heated to 100 °C to stop the transferring reaction. The samples were analyzed by RP-C18 HPLC with gradient elution of 0.25 M NH4HCO3(aq)/15% MeOH in water (100:0 to 0:100) at a flow rate of 1 mL/min over 45 min, and the peaks of substrates were monitored at UV 260 nm. […] The reaction mixtures were heated to 100 °C to stop the transferring reaction, and samples were analyzed by an anion-exchange column (SAX1, Supelco Co., 5 μm, 4.6 × 250 mm) with a linear gradient elution of NH4OAc (20 mM to 1 M in MeOH) at a flow rate of 1.0 mL/min over 30 min. The fluorescent substrates were monitored with λex 466 nm/λem 535 nm by fluorescence detector. […]

MraYBS [2] = biological target: T1, MraYBS; test: Biolayer interferometry-based (BLI) binding assay
Description: MraYBS binding was measured in a biolayer interferometry-based binding assay on Octet Red96® instrument (ForteBio, Inc.). The biotinylation of MraYBS was performed with using EZ-Link® Sulfo-NHS-LC-LC-Biotin Kit (Thermo Fisher Scientific, Inc.). In general, MraYBS (1.7 mg/mL) in 50 μL reaction buffer (0.01 M HEPES pH 7.4, 0.15 M NaCl, 0.005% v/v Surfactant P20), was added by the sulfo-NHS-LC-LC-biotin reagent (1 mM, 1 μL). After incubating for 30 minutes at room temperature, the biotinylated-MraYBS was purified by a Zeba^TM Spin Desalting Columns, 7K MWCO (Thermo Fisher Scientific, Inc.), and the buffer was changed to the binding buffer (30 mM Tris, 10 mM MgCl2, 10 mM NaCl, 0.1 mM Tween-20, pH 8.0) during the purification. Comparing to the non-biotinylated-MraYBS, the biotinylated-MraYBS remains 62% activity measured by the HPLC-based MraY functional assay in 1 h reaction. The biotinylated MraYBS was then immobilized to Super Streptavidin (SSA) Octet tips (ForteBio, Inc.) for reaching a fixed signal of 3 nm. Before the assay starting, the MraYBS-labeled SSA sensors were pre-soaked in binding buffer for 30 min. The association of Park’s analogues with MraYBS were measured by incubating MraYBS-labeled SSA sensors in binding buffer containing various concentrations of samples in Octet Red system. The dissociation was monitored by moving the ligand biosenors from the analyte solution to binding buffer. The dissociation constants (KD) were obtained by nonlinear regression analysis using the specific binding model with the GraphPad Prism program (GraphPad Software, San Diego, CA).

CC(=O)N[C@H]1[C@@H](OP(=O)(O)OP(=O)(O)OC[C@H]2O[C@@H](n3ccc(=O)[nH]c3=O)[C@H](O)[C@@H]2O)O[C@H](CO)[C@@H](O)[C@@H]1O[C@H](C)C(=O)N[C@@H](C)C(=O)N[C@H](CCC(=O)N[C@@H](CCCCNC(=O)CCCCCNc1ccc([N+](=O)[O-])c2nonc12)C(=O)N[C@H](C)C(=O)N[C@H](C)C(=O)O)C(=O)O [Compound 6, NBD-Park’s nucleotide]
Vmax (MraYBS [1]): 18 ± 0.8 FLU/min
Relative activity (MraYBS K102A mutant): 33%
Kd (MraYBS [2]): 127 µM
